“And” between values parts separate entries of the source, which are not always exact repeats. Equal entries are not always repeated.
Tested on: adult patients (aged 18-64 years) with TRD
Experiment: Maximum time to onset of clinician-reported adverse events by AE week 1/week 4 occurrence (Tables 5-16; modal dose 56, modal dose 84, Total)
Type: in vivo, human
Conditions: for Blood Pressure (clinician): n >60 m / Blood Pressure (clinician): 31-60 m / Blood Pressure (clinician): 61-90 m / Blood Pressure (clinician): % >60 m / Blood Pressure (clinician): TOTAL / Dissociation (clinician), % >60 m / Dizziness, % >60 m / Sedation, % >60 m / Vertigo, % >60 m: Based on Week 4; for Sedation(clinician-reported), n (%) / Vertigo(clinician-reported), n (%) / Dissociation(clinician-reported), n (%) / Blood pressure increased (clinician-reported), n (%) / Dizziness(clinician-reported), n (%): listed as ESK
Description: Patients were monitored for >90 minutes after ESK administration at each treatment session, after which time they could leave the clinical site at the clinician's discretion. AEs were monitored and reported, and safety assessments, including clinical laboratory tests and physical examinations, were conducted throughout the study. Clinician-reported AEs were categorized as mild, moderate, or severe based on clinical judgement (Table 1).
Since flexible dosing (ESK 56 or 84 mg) was permitted in the studies and an individual patient's doses could change within dosing timeframes, patients were stratified by modal dose during the respective periods.
The time to onset of the adverse events experienced by patients in Example 2 was analyzed. Tables 5-11 include the summary of specific adverse events by their respective categorized maximum time to Onset (i) across sessions 3-8 during Induction Phase by AE week 1 occurrence (Table 5), (ii) during Optimization Phase by AE week 1 occurrence (Table 6), (iii) during Optimization Phase by AE week 4 occurrence (Table 7), (iv) during Month 3-6 of Maintenance Phase by AE week 1 occurrence (Table 8), (v) Month 3-6 of Maintenance Phase by AE week 4 occurrence (Table 9), (vi) Month 6-12 of Maintenance Phase by AE week 1 occurrence (Table 10), and (vii) during Month 6-12 of Maintenance Phase by AE week 4 (Table 11).
Tables 12-16 include the incidences of clinician-reported blood pressure (Table 12), clinician-reported dissociation (Table 13), dizziness (Table 14), sedation (Table 15), and vertigo (Table 16) spanning week 1 to month 12 using the data of Example 2.

[1] = Induction Phase sessions 3-8, AE week 1 None
[2] = Induction Phase sessions 3-8, AE week 1 Once
[3] = Induction Phase sessions 3-8, AE week 1 Twice
[4] = Month 3-6 Maintenance, AE week 1 None, onset missing
[5] = Month 3-6 Maintenance, AE week 4 None, onset 31-60 minutes
[6] = Month 3-6 Maintenance, AE week 4 None, onset missing
[7] = Month 6-12 Maintenance, AE week 4 Once
[8] = Month 6-12 Maintenance, AE week 4 Twice, onset 31-60 minutes
[9] = Optimization Phase, AE week 1 Once
[10] = Optimization Phase, AE week 4 None

CN[C@]1(c2ccccc2Cl)CCCCC1=O [esketamine, (S)-2-(2-chlorophenyl)-2-(methylamino)cyclohexanone]
Blood Pressure (clinician): n >60 m (None, Month 3-6): 1 | Blood Pressure (clinician): 31-60 m (None, Month 6-12): 6 | Blood Pressure (clinician): 61-90 m (None, Month 6-12): 1 | Blood Pressure (clinician): % >60 m (None, Month 6-12): 12.5% | Blood Pressure (clinician): TOTAL (None, Month 6-12): 8 | Blood Pressure (clinician): n >60 m (None, Month 6-12): 1 | Blood Pressure (clinician): 31-60 m (Once, Month 2): 9 | Blood Pressure (clinician): % >60 m (Once, Month 2): 0% | Blood Pressure (clinician): TOTAL (Once, Month 2): 9 | Blood Pressure (clinician): n >60 m (Once, Month 2): 0 | Blood Pressure (clinician): 31-60 m (Once, Month 3-6): 5 | Blood Pressure (clinician): % >60 m (Once, Month 3-6): 0% | Blood Pressure (clinician): TOTAL (Once, Month 3-6): 5 | Blood Pressure (clinician): n >60 m (Once, Month 3-6): 0 | Blood Pressure (clinician): 31-60 m (Once, Month 6-12): 3 | Blood Pressure (clinician): % >60 m (Once, Month 6-12): 0% | Blood Pressure (clinician): TOTAL (Once, Month 6-12): 3 | Blood Pressure (clinician): n >60 m (Once, Month 6-12): 0 | Blood Pressure (clinician): 31-60 m (Twice, Month 2): 9 | Blood Pressure (clinician): % >60 m (Twice, Month 2): 0% | Blood Pressure (clinician): TOTAL (Twice, Month 2): 9 | Blood Pressure (clinician): n >60 m (Twice, Month 2): 0 | Blood Pressure (clinician): 31-60 m (Twice, Month 3-6): 2 | Blood Pressure (clinician): 61-90 m (Twice, Month 3-6): 1 | Blood Pressure (clinician): % >60 m (Twice, Month 3-6): 33.3% | Blood Pressure (clinician): TOTAL (Twice, Month 3-6): 3 | Blood Pressure (clinician): n >60 m (Twice, Month 3-6): 1 | Blood Pressure (clinician): 31-60 m (Twice, Month 6-12): 2 | Blood Pressure (clinician): % >60 m (Twice, Month 6-12): 0% | Blood Pressure (clinician): TOTAL (Twice, Month 6-12): 2 | Blood Pressure (clinician): n >60 m (Twice, Month 6-12): 0 | Dissociation (clinician), % >60 m (incidence None, Month 2): 0% | Dizziness, % >60 m (incidence None, Month 2): 8.6% | Sedation, % >60 m (incidence None, Month 2): 0% | Vertigo, % >60 m (incidence None, Month 2): 12% | Dissociation (clinician), % >60 m (incidence None, Month 3-6): 2.6% | Dizziness, % >60 m (incidence None, Month 3-6): 2.1% | Sedation, % >60 m (incidence None, Month 3-6): 14.3% | Vertigo, % >60 m (incidence None, Month 3-6): 13.6% | Dissociation (clinician), % >60 m (incidence None, Month 6-12): 4.2% | Dizziness, % >60 m (incidence None, Month 6-12): 0% | Sedation, % >60 m (incidence None, Month 6-12): 0% | Vertigo, % >60 m (incidence None, Month 6-12): 0% | Dissociation (clinician), % >60 m (incidence Once, Month 2): 4.8% | Dizziness, % >60 m (incidence Once, Month 2): 3.7% | Sedation, % >60 m (incidence Once, Month 2): 0% | Vertigo, % >60 m (incidence Once, Month 2): 4.3% | Dissociation (clinician), % >60 m (incidence Once, Month 3-6): 6.7% | Dizziness, % >60 m (incidence Once, Month 3-6): 0% | Sedation, % >60 m (incidence Once, Month 3-6): 0% | Vertigo, % >60 m (incidence Once, Month 3-6): 0% | Dissociation (clinician), % >60 m (incidence Once, Month 6-12): 0% | Dizziness, % >60 m (incidence Once, Month 6-12): 0% | Sedation, % >60 m (incidence Once, Month 6-12): 0% | Vertigo, % >60 m (incidence Once, Month 6-12): 25% | Dissociation (clinician), % >60 m (incidence Twice, Month 2): 0% | Dizziness, % >60 m (incidence Twice, Month 2): 3.8% | Sedation, % >60 m (incidence Twice, Month 2): 0% | Vertigo, % >60 m (incidence Twice, Month 2): 0% | Dissociation (clinician), % >60 m (incidence Twice, Month 3-6): 3% | Dizziness, % >60 m (incidence Twice, Month 3-6): 3% | Sedation, % >60 m (incidence Twice, Month 3-6): 0% | Vertigo, % >60 m (incidence Twice, Month 3-6): 9.5% | Dissociation (clinician), % >60 m (incidence Twice, Month 6-12): 0% | Dizziness, % >60 m (incidence Twice, Month 6-12): 5.9% | Sedation, % >60 m (incidence Twice, Month 6-12): 0% | Vertigo, % >60 m (incidence Twice, Month 6-12): 0% | Blood pressure increased: time to onset 31-60 minutes [1]: 10 (90.9%) and 10 (100%) and 20 (95.2%) | Sedation: time to onset 31-60 minutes [1]: 2 (22.2%) and 2 (20.0%) and 4 (21.1%) | Sedation: time to onset >90 minutes [1]: 1 (11.1%) and 1 (10.0%) and 2 (10.5%) | Vertigo: time to onset 61-90 minutes [1]: 1 (3.3%) and 1 (6.7%) and 2 (4.4%) | Dizziness: time to onset 31-60 minutes [2]: 4 (12.1%) and 4 (17.4%) and 8 (14.3%) | Dizziness: time to onset 61-90 minutes [2]: 1 (3.0%) and 1 (4.3%) and 2 (3.6%) | Vertigo: time to onset >90 minutes [2]: 1 (9.1%) and 1 (5.6%) and 2 (6.9%) | Dissociation: time to onset 61-90 minutes [3]: 2 (5.6%) and 2 (7.1%) and 4 (6.3%) | Dizziness: time to onset >90 minutes [3]: 1 (2.8%) and 1 (2.5%) and 2 (2.6%) | Sedation(clinician-reported), n (%) (Month 3-6 Maintenance, AE week 1 None, onset 31-60 minutes): 1 (20.0%) and 1 (8.3%) and 2 (11.8%) | Vertigo(clinician-reported), n (%) (Month 3-6 Maintenance, AE week 1 None, onset 61-90 minutes): 1 (10.0%) and 1 (12.5%) and 2 (11.1%) | Dissociation(clinician-reported), n (%) [4]: 1 (5.9%) and 1 (5.3%) and 2 (5.6%) | Sedation(clinician-reported), n (%) [4]: 1 (20.0%) and 1 (8.3%) and 2 (11.8%) | Blood pressure increased (clinician-reported), n (%) (Month 3-6 Maintenance, AE week 1 Once): 2 (2.0%) and 2 (1.9%) and 4 (2.0%) | Blood pressure increased (clinician-reported), n (%) (Month 3-6 Maintenance, AE week 1 Once, onset 31-60 minutes): 2 (100%) and 4 (100%) | Blood pressure increased (clinician-reported), n (%) (Month 3-6 Maintenance, AE week 1 Twice): 2 (2.0%) and 2 (1.9%) and 4 (2.0%) | Vertigo(clinician-reported), n (%) (Month 3-6 Maintenance, AE week 1 Twice, onset 0-30 minutes): 11 (91.7%) and 11 (84.6%) and 22 (88.0%) | Dissociation(clinician-reported), n (%) [5]: 5 (27.8%) and 5 (25.0%) and 10 (26.3%) | Sedation(clinician-reported), n (%) [5]: 1 (20.0%) and 1 (11.1%) and 2 (14.3%) | Vertigo(clinician-reported), n (%) (Month 3-6 Maintenance, AE week 4 None, onset 61-90 minutes): 1 (8.3%) and 1 (10.0%) and 2 (9.1%) | Dissociation(clinician-reported), n (%) [6]: 1 (5.6%) and 1 (5.0%) and 2 (5.3%) | Dizziness(clinician-reported), n (%) [6]: 2 (6.9%) and 2 (11.1%) and 4 (8.5%) | Vertigo(clinician-reported), n (%) (Month 3-6 Maintenance, AE week 4 Once): 3 (3.0%) and 3 (2.9%) and 6 (3.0%) | Vertigo(clinician-reported), n (%) (Month 3-6 Maintenance, AE week 4 Once, onset 0-30 minutes): 3 (100%) and 6 (100%) | Dizziness(clinician-reported), n (%) (Month 3-6 Maintenance, AE week 4 Once, onset 31-60 minutes): 1 (14.3%) and 1 (16.7%) and 2 (15.4%) | Vertigo(clinician-reported), n (%) (Month 3-6 Maintenance, AE week 4 Twice, onset 61-90 minutes): 1 (12.5%) and 1 (7.7%) and 2 (9.5%) | Sedation(clinician-reported), n (%) (Month 6-12 Maintenance, AE week 1 None): 5 (7.5%) and 5 (8.3%) and 10 (7.9%) | Sedation(clinician-reported), n (%) (Month 6-12 Maintenance, AE week 1 None, onset missing): 1 (20.0%) and 2 (20.0%) | Dizziness(clinician-reported), n (%) (Month 6-12 Maintenance, AE week 1 Twice): 7 (10.4%) and 7 (11.7%) and 14 (11.0%) | Vertigo(clinician-reported), n (%) (Month 6-12 Maintenance, AE week 1 Twice, onset 31-60 minutes): 1 (10.0%) and 1 (16.7%) and 2 (12.5%) | Sedation(clinician-reported), n (%) (Month 6-12 Maintenance, AE week 4 None): 4 (6.0%) and 4 (6.7%) and 8 (6.3%) | Vertigo(clinician-reported), n (%) (Month 6-12 Maintenance, AE week 4 None, onset 31-60 minutes): 1 (14.3%) and 1 (25.0%) and 2 (18.2%) | Sedation(clinician-reported), n (%) (Month 6-12 Maintenance, AE week 4 None, onset missing): 1 (25.0%) and 2 (25.0%) | Sedation(clinician-reported), n (%) [7]: 2 (3.0%) and 2 (3.3%) and 4 (3.1%) | Vertigo(clinician-reported), n (%) [7]: 2 (3.0%) and 2 (3.3%) and 4 (3.1%) | Vertigo(clinician-reported), n (%) (Month 6-12 Maintenance, AE week 4 Once, onset 0-30 minutes): 1 (50.0%) and 2 (50.0%) | Dissociation(clinician-reported), n (%) (Month 6-12 Maintenance, AE week 4 Once, onset 31-60 minutes): 1 (100%) and 1 (12.5%) and 2 (22.2%) | Blood pressure increased (clinician-reported), n (%) (Month 6-12 Maintenance, AE week 4 Twice): 1 (1.5%) and 1 (1.7%) and 2 (1.6%) | Blood pressure increased (clinician-reported), n (%) [8]: 1 (100%) and 2 (100%) | Vertigo(clinician-reported), n (%) [8]: 1 (11.1%) and 1 (16.7%) and 2 (13.3%) | Dizziness: time to onset >90 minutes [9]: 1 (5.6%) and 1 (6.7%) and 2 (6.1%) | Sedation: patients with AE [9]: 2 (1.5%) and 2 (1.2%) and 4 (1.3%) | Vertigo: time to onset 31-60 minutes [9]: 1 (12.5%) and 1 (9.1%) and 2 (10.5%) | Vertigo: time to onset >90 minutes [9]: 1 (12.5%) and 1 (9.1%) and 2 (10.5%) | Blood pressure increased: patients with AE [10]: 9 (6.8%) and 9 (5.4%) and 18 (6.0%) | Dissociation: patients with AE [10]: 23 (17.4%) and 23 (13.8%) and 46 (15.4%) | Sedation: patients with AE [10]: 5 (3.8%) and 5 (3.0%) and 10 (3.3%) | Vertigo: time to onset 61-90 minutes [10]: 1 (10.0%) and 1 (6.7%) and 2 (8.0%) | Dizziness: time to onset 31-60 minutes (Optimization Phase, AE week 4 Once): 1 (9.1%) and 1 (6.3%) and 2 (7.4%) | Dizziness: time to onset 31-60 minutes (Optimization Phase, AE week 4 Twice): 1 (3.7%) and 1 (3.8%) and 2 (3.8%) | time at which adverse events (particularly dissociation, increase in blood pressure) generally peak (human, in vivo, other: intranasal): ~40 min

— patent US20240390295A1, “METHODS FOR TREATING DEPRESSION” (JANSSEN PHARMACEUTICA NV, priority 2020, published 2024)
